# Results reported in US8466181B2, “1,2,3-triazole-imidazole compounds” (Hoffmann-La Roche Inc., priority 2010, dated 2013).
# Molecular target: T1, human GABA A receptor α5β3γ2 (GABA Aa5) (Homo sapiens, UniProt P18507+P31644)
# T1 construct: expressed in transfected cells; host or cells: HEK293 cells, transiently transfected; membranes prepared
# Experiment: [3H]flumazenil competition binding, HEK293 cells expressing human receptors
# Details: displacement of [3H]flumazenil 0.5 nM; HEK293 transiently transfected human receptors; means of two determinations; read-out: hKi (GABA Aa5)
# Method: The ability of compounds present invention to bind to GABA A receptor subtypes was determined by competition for [^3H]flumazenil (85 Ci/mmol; Roche) binding to HEK293 cells expressing rat (stably transfected) or human (transiently transfected) receptors of composition α1β2/3γ2, α2β3γ2, α3β3γ2 and α5β3γ2.
# Cell pellets were suspended in Krebs-tris buffer (4.8 mM KCl, 1.2 mM CaCl2, 1.2 mM MgCl2, 120 mM NaCl, 15 mM Tris; pH 7.5; binding assay buffer), homogenized by polytron for ca. 20 sec on ice and centrifuged for 60 min at 4° C. (50000 g; Sorvall, rotor: SM24=20000 rpm). The cell pellets were resuspended in Krebs-tris buffer and homogenized by polytron for ca. 15 sec on ice. Protein was measured (Bradford method, Bio-Rad) and aliquots of 1 mL were prepared and stored at −80° C.
# Assays were incubated to equilibrium for 1 hour at 4° C. and harvested onto GF/C uni-filters (Packard) by filtration using a Packard harvester and washing with ice-cold wash buffer (50 mM Tris; pH 7.5). After drying, filter-retained radioactivity was detected by liquid scintillation counting.
# Ki values were calculated using Excel-Fit (Microsoft) and are the means of two determinations.
# Representative test results, obtained by the above described assay measuring binding affinity to HEK293 cells expressing human (h) receptors, are shown in Table 1 below.
row,SMILES,Ki [nM]
1,"Cc1nnn(-c2ccc(F)cc2)c1-c1cn(-c2ccc(C(F)(F)F)cn2)cn1 [Example 34, 2-{4-[3-(4-Fluoro-phenyl)-5-methyl-3H-[1,2,3]triazol-4-yl]-imidazol-1-yl}-5-trifluoromethyl-pyridine]",45.6
2,"COC(=O)c1ccc(-n2cnc(-c3c(C)nnn3-c3ccc(F)cc3)c2)nc1 [Example 35, Methyl 6-(4-(1-(4-fluorophenyl)-4-methyl-1H-1,2,3-triazol-5-yl)-1H-imidazol-1-yl)nicotinate]",26.3
3,"Cc1nnn(-c2ccc(F)cc2)c1-c1cn(-c2ccc(C(=O)NC3CCOCC3)cn2)cn1 [Example 37, 6-{4-[3-(4-Fluoro-phenyl)-5-methyl-3H-[1,2,3]triazol-4-yl]-imidazol-1-yl}-N-(tetrahydropyran-4-yl)-nicotinamide]",25.9
4,"Cc1nnn(-c2ccc(F)cc2)c1-c1cn(-c2ccc(C(=O)NC3(C)COC3)cn2)cn1 [Example 38, 6-(4-(1-(4-Fluorophenyl)-4-methyl-1H-1,2,3-triazol-5-yl)-1H-imidazol-1-yl)-N-(3-methyloxetan-3-yl)nicotinamide]",9.6
5,"Cc1nnn(-c2ccc(F)cc2)c1-c1cn(-c2ccc(C(=O)N3CC4(COC4)C3)cn2)cn1 [Example 39, (6-(4-(1-(4-Fluorophenyl)-4-methyl-1H-1,2,3-triazol-5-yl)-1H-imidazol-1-yl)pyridin-3-yl)(2-oxa-6-azaspiro[3.3]heptan-6-yl)methanone]",35.8
6,"Cc1nnn(-c2ccc(F)cc2)c1-c1cn(-c2ccc(C(N)=O)cn2)cn1 [Example 40, 6-(4-(1-(4-Fluorophenyl)-4-methyl-1H-1,2,3-triazol-5-yl)-1H-imidazol-1-yl)nicotinamide]",12.6
7,"Cc1nnn(-c2ccc(F)cc2)c1-c1cn(-c2ccc(C(=O)NC(C)(C)CO)cn2)cn1 [Example 41, 6-(4-(1-(4-Fluorophenyl)-4-methyl-1H-1,2,3-triazol-5-yl)-1H-imidazol-1-yl)-N-(1-hydroxy-2-methylpropan-2-yl)nicotinamide]",20.8
8,"Cc1nnn(-c2ccc(F)cc2)c1-c1cn(-c2ccc(C(=O)NC3CC3)cn2)cn1 [Example 42, N-Cyclopropyl-6-(4-(1-(4-fluorophenyl)-4-methyl-1H-1,2,3-triazol-5-yl)-1H-imidazol-1-yl)nicotinamide]",3.2
9,"Cc1nnn(-c2ccccc2F)c1-c1cn(-c2ccc(C(=O)NC(C)C)cn2)cn1 [Example 43, 6-(4-(1-(2-Fluorophenyl)-4-methyl-1H-1,2,3-triazol-5-yl)-1H-imidazol-1-yl)-N-isopropylnicotinamide]",15.1
10,"Cc1nnn(-c2ccc(F)cc2)c1-c1cn(-c2ccc(C(=O)N3CCS(=O)(=O)CC3)cn2)cn1 [Example 44, (1,1-Dioxo-1,6-thiomorpholin-4-yl)-(6-{4-[3-(4-fluoro-phenyl)-5-methyl-3H-[1,2,3]triazol-4-yl]-imidazol-1-yl}-pyridin-3-yl)-methanone]",29
11,"Cc1nnn(-c2ccc(F)cc2)c1-c1cn(-c2ccc(C(=O)NN3CCOCC3)cn2)cn1 [Example 45, 6-(4-(1-(4-Fluorophenyl)-4-methyl-1H-1,2,3-triazol-5-yl)-1H-imidazol-1-yl)-N-morpholinonicotinamide]",69.4
12,"Cc1nnn(-c2ccccc2F)c1-c1cn(-c2ccc(C(=O)NC3CCOCC3)cn2)cn1 [Example 46, 6-(4-(1-(2-Fluorophenyl)-4-methyl-1H-1,2,3-triazol-5-yl)-1H-imidazol-1-yl)-N-(tetrahydro-2H-pyran-4-yl)nicotinamide]",49
13,"Cc1nnn(-c2ccccc2F)c1-c1cn(-c2ccc(C(=O)NC(C)(C)CO)cn2)cn1 [Example 47, 6-(4-(1-(2-Fluorophenyl)-4-methyl-1H-1,2,3-triazol-5-yl)-1H-imidazol-1-yl)-N-(1-hydroxy-2-methylpropan-2-yl)nicotinamide]",51.7
14,"Cc1nnn(-c2ccccc2F)c1-c1cn(-c2ccc(C(N)=O)cn2)cn1 [Example 48, 6-(4-(1-(2-Fluorophenyl)-4-methyl-1H-1,2,3-triazol-5-yl)-1H-imidazol-1-yl)nicotinamide]",17.8
15,"Cc1nnn(-c2ccccc2F)c1-c1cn(-c2ccc(C(=O)N3CC4(COC4)C3)cn2)cn1 [Example 49, (6-(4-(1-(2-Fluorophenyl)-4-methyl-1H-1,2,3-triazol-5-yl)-1H-imidazol-1-yl)pyridin-3-yl)(2-oxa-6-azaspiro[3.3]heptan-6-yl)methanone]",90
16,"Cc1nnn(-c2ccccc2F)c1-c1cn(-c2ccc(C(=O)NC3(C)COC3)cn2)cn1 [Example 50, 6-(4-(1-(2-Fluorophenyl)-4-methyl-1H-1,2,3-triazol-5-yl)-1H-imidazol-1-yl)-N-(3-methyloxetan-3-yl)nicotinamide]",17.9
17,"Cc1nnn(-c2ccccc2F)c1-c1cn(-c2ccc(C(=O)NN3CCOCC3)cn2)cn1 [Example 51, 6-(4-(1-(2-Fluorophenyl)-4-methyl-1H-1,2,3-triazol-5-yl)-1H-imidazol-1-yl)-N-morpholinonicotinamide]",50.5
18,"Cc1nnn(-c2ccccc2F)c1-c1cn(-c2ccc(C(=O)NC3CC3)cn2)cn1 [Example 52, N-Cyclopropyl-6-(4-(1-(2-fluorophenyl)-4-methyl-1H-1,2,3-triazol-5-yl)-1H-imidazol-1-yl)nicotinamide]",10.9
19,"Cc1nnn(-c2ccccc2F)c1-c1cn(-c2ccc(C(=O)NCC3CC3)cn2)cn1 [Example 53, N-(Cyclopropylmethyl)-6-(4-(1-(2-fluorophenyl)-4-methyl-1H-1,2,3-triazol-5-yl)-1H-imidazol-1-yl)nicotinamide]",32.7
